Values of other authors in patent publication US9707259B2, “Magnetic diffusional patch” (METUAS MEDIKAL SAGLIK HIZ-METLERI DANISMANLIK IHRACAT …, priority 2011, dated 2017).

Experiments:
[1] = test system: activated human monocytes
[2] = test system: thromboxane and leukotriene B4 synthesis
[3] = experimental animals, rheumatoid arthritis

SMILES | inflammation mediators [1] | effect on cyclooxygenase (COX) enzyme (cyclooxygenase (COX)) | effect on lipooxygenase enzyme (lipooxygenase enzymes) | synthesis of thromboxane and leukotriene B4 from eicosanoids [2] | levels of pro-inflammation cytokines TNF-alpha and interleukin (IL)-1beta (rheumatoid arthritis; [3]) | severity of the disease (rheumatoid arthritis; [3]) | induced arthritis with the aid of collagen (rheumatoid arthritis; experimental studies)
CC1=CCC(O)(C(C)C)CC1 (stereo not shown) [4-terpineol] | suppress | – | – | – | – | – | –
CC1=CC(=O)C(C(C)C)=CC1=O [thymoquinone] | – | blocks | blocks | inhibits | reduction | decreases | able to suppress
